# Source: ChEMBL document CHEMBL1136459, “New antibacterial tetrahydro-4(2H)-thiopyran and thiomorpholine S-oxide and S,S-dioxide phenyloxazolidinones” (Bioorg Med Chem Lett, 2003)
# Legend:
# Enterococcus faecium = test: In vitro antibacterial activity against vancomycin-resistant Enterococcus faecium UC12712 (VRE).
# Staphylococcus aureus [1] = test: In vitro antibacterial activity against Staphylococcus aureus strains UC12673, UC9213, ATCC 29213, and UC9271 (SA); range is 2-4; type: functional
# Moraxella catarrhalis [2] = test: In vitro antibacterial activity against Moraxella catarrhalis strains 30607 and 30603 (MC).; type: functional
# Haemophilus influenzae [3] = test: In vitro antibacterial activity against Haemophilia influenzae strains 30063 and ATCC 31517 (HI); range is 4-8; type: functional
# Streptococcus pneumoniae [4] = test: In vitro antibacterial activity against Streptococcus pneumoniae strains ATCC 6305 and 31573 (SPN); range is 0.5-1
# Mus musculus [5] = test: In vivo Efficacy of compound after peroral administration in mouse; type: functional; details: po
# [6] = tested on: Staphylococcus epidermidis; test: In vitro antibacterial activity against Staphylococcus epidermidis strains UC12084, 30031, and CDC-CNS90 (SE); range is 1-2; type: functional
# Staphylococcus aureus [7] = test: In vitro antibacterial activity against linezolid-resistant Staphylococcus aureus ATCC 29213 (LRSA).; type: functional
# Staphylococcus aureus [8] = test: In vitro antibacterial activity against Staphylococcus aureus strains UC12673, UC9213, ATCC 29213, and UC9271 (SA); range is 16-32; type: functional
# Moraxella catarrhalis [9] = test: In vitro antibacterial activity against Moraxella catarrhalis strains 30607 and 30603 (MC); range is 8-16; type: functional
# Haemophilus influenzae [10] = test: In vitro antibacterial activity against Haemophilia influenzae strains ATCC 30063 and ATCC 31517; type: functional
# [11] = tested on: Staphylococcus epidermidis; test: In vitro antibacterial activity against Staphylococcus epidermidis strains UC12084, 30031, and CDC-CNS90 (SE); type: functional
# Staphylococcus aureus [12] = test: In vitro antibacterial activity against Staphylococcus aureus strains UC12673, UC9213, ATCC 29213, and UC9271 (SA); range is 4-8; type: functional
# Streptococcus pneumoniae [13] = test: In vitro antibacterial activity against Streptococcus pneumoniae strains ATCC6305 and 31573 (SPN).
# Streptococcus pneumoniae [14] = test: In vitro antibacterial activity against Streptococcus pneumoniae strains ATCC 6305 and 31573 (SPN); range is 4-8
# Staphylococcus aureus [15] = test: In vitro antibacterial activity against Staphylococcus aureus strains UC12673, UC9213, ATCC 29213, and UC9271 (SA); range is 8-32; type: functional
# Haemophilus influenzae [16] = test: In vitro antibacterial activity against Haemophilia influenzae strains 30063 and ATCC 31517 (HI); range is 32-64; type: functional
# [17] = tested on: Staphylococcus epidermidis; test: In vitro antibacterial activity against Staphylococcus epidermidis strains UC12084, 30031, and CDC-CNS90 (SE); range is 4-8; type: functional
# Staphylococcus aureus [18] = test: In vitro antibacterial activity against Staphylococcus aureus strains UC12673, UC9213, ATCC 29213, and UC9271 (SA); type: functional
# [19] = tested on: Staphylococcus epidermidis; test: In vitro antibacterial activity against Staphylococcus epidermidis strains UC12084, 30031, and CDC-CNS90 (SE); range is 2-4; type: functional
# Haemophilus influenzae [20] = test: In vitro antibacterial activity against Haemophilia influenzae strains 30063 and ATCC 31517 (HI); range is 8-32; type: functional
# Streptococcus pneumoniae [21] = test: In vitro antibacterial activity against Streptococcus pneumoniae strains ATCC 6305 and 31573 (SPN); range is 2-4
# Staphylococcus aureus [22] = test: In vitro antibacterial activity against Staphylococcus aureus strains UC12673, UC9213, ATCC 29213, and UC9271 (SA); range is 8-16; type: functional
# Haemophilus influenzae [23] = test: In vitro antibacterial activity against Haemophilia influenzae strains 30063 and ATCC 31517 (HI); range is 16-32; type: functional
# [24] = tested on: Staphylococcus epidermidis; test: In vitro antibacterial activity against Staphylococcus epidermidis strains UC12084, 30031, and CDC-CNS90 (SE); range is 0.5-1; type: functional
# Haemophilus influenzae [25] = test: In vitro antibacterial activity against Haemophilia influenzae strains 30063 and ATCC 31517 (HI); range is 8-16; type: functional
# Mus musculus [26] = test: In vivo Efficacy of compound after peroral administration to protect the Staphylococcus aureus mouse septicemia model; type: functional; details: po
SMILES,MIC (Enterococcus faecium) [µg/mL],MIC (Moraxella catarrhalis [2]) [µg/mL],MIC [6] [µg/mL],MIC (Staphylococcus aureus [7]) [µg/mL],MIC (Haemophilus influenzae [10]) [µg/mL],MIC [11] [µg/mL],further results
O=C(CF)NC[C@H]1CN(c2ccc(C3CC[S+]([O-])CC3)c(F)c2)C(=O)O1 (stereo partly drawn),4,8,1,32,–,–,MIC (Staphylococcus aureus [1]): 2 µg/mL; MIC (Haemophilus influenzae [3]): 4 µg/mL; MIC (Streptococcus pneumoniae [4]): 0.5 µg/mL; ED50 (Mus musculus [5]): 3.75 mg/kg
O=C(NC[C@H]1CN(c2ccc(N3CC[S+]([O-])CC3)c(F)c2)C(=O)O1)C1CC1,4,–,–,64,32,4,MIC (Staphylococcus aureus [8]): 16 µg/mL; MIC (Moraxella catarrhalis [9]): 8 µg/mL
CC(=O)NC[C@H]1CN(c2ccc(N3CC[S+]([O-])CC3)c(F)c2)C(=O)O1,2,4,1,> 64,–,–,MIC (Haemophilus influenzae [3]): > 4 µg/mL; MIC (Staphylococcus aureus [12]): 4 µg/mL; MIC (Streptococcus pneumoniae [13]): 1 µg/mL
CC(=O)Nc1ccc(/C=C/C(=O)NC[C@H]2CN(c3ccc(N4CC[S+]([O-])CC4)c(F)c3)C(=O)O2)cc1,8,16,1,> 64,> 64,–,MIC (Staphylococcus aureus [12]): 4 µg/mL
O=C(NC[C@H]1CN(c2ccc(N3CCS(=O)(=O)CC3)c(F)c2)C(=O)O1)c1csnn1,16,32,–,32,–,–,MIC (Streptococcus pneumoniae [14]): 4 µg/mL; MIC (Staphylococcus aureus [15]): 8 µg/mL; MIC (Haemophilus influenzae [16]): 32 µg/mL; MIC [17]: 4 µg/mL
CC(=O)NC[C@H]1CN(c2ccc(N3CCS(=O)(=O)CC3)c(F)c2)C(=O)O1,2,4,–,64,–,1,MIC (Haemophilus influenzae [3]): 4 µg/mL; MIC (Streptococcus pneumoniae [4]): 0.5 µg/mL; MIC (Staphylococcus aureus [18]): 4 µg/mL
O=C1O[C@@H](CNC(=O)C(F)(F)F)CN1c1ccc(C2CCS(=O)(=O)CC2)c(F)c1,8,8,–,64,–,–,MIC [19]: 2 µg/mL; MIC (Staphylococcus aureus [15]): 8 µg/mL; MIC (Haemophilus influenzae [20]): > 8 µg/mL
O=C(CO)NC[C@H]1CN(c2ccc(C3CC[S+]([O-])CC3)c(F)c2)C(=O)O1 (stereo partly drawn),8,8,–,64,8,4,MIC (Streptococcus pneumoniae [21]): 2 µg/mL; MIC (Staphylococcus aureus [8]): 16 µg/mL
CSCC(=O)NC[C@H]1CN(c2ccc(C3CCS(=O)(=O)CC3)c(F)c2)C(=O)O1,4,8,–,64,–,2,MIC (Haemophilus influenzae [20]): 8 µg/mL; MIC (Staphylococcus aureus [12]): 4 µg/mL
O=C(CC(F)(F)F)NC[C@H]1CN(c2ccc(N3CCS(=O)(=O)CC3)c(F)c2)C(=O)O1,4,16,–,> 64,–,4,MIC (Staphylococcus aureus [22]): 8 µg/mL; MIC (Haemophilus influenzae [23]): 16 µg/mL
O=C1O[C@@H](CNC(=O)C(F)(F)F)CN1c1ccc(C2CC[S+]([O-])CC2)c(F)c1 (stereo partly drawn),4,8,–,32,–,–,MIC [19]: 2 µg/mL; MIC (Staphylococcus aureus [18]): 8 µg/mL; MIC (Haemophilus influenzae [20]): 8 µg/mL
CC(=O)NC[C@H]1CN(c2ccc(C3CC[S+]([O-])CC3)c(F)c2)C(=O)O1 (stereo partly drawn),2,–,–,64,8,–,MIC [24]: 0.5 µg/mL; MIC (Moraxella catarrhalis [9]): > 8 µg/mL; MIC (Staphylococcus aureus [18]): 4 µg/mL; MIC (Streptococcus pneumoniae [13]): 0.5 µg/mL
CC(=O)NC[C@H]1CN(c2ccc(N3CCOCC3)c(F)c2)C(=O)O1 [LINEZOLID],–,–,1,64,–,–,MIC (Haemophilus influenzae [25]): > 8 µg/mL; ED50 (Mus musculus [26]): 5 mg/kg
